Experimental data published in patent publication US6984649B1, “Pyridine derivatives” (Bayer Aktiengesellschaft, priority 2000, dated 2006).
Where a name gives a salt, the structure may show the parent alone.

Each compound was assayed against T1, human IKK-β (Homo sapiens, UniProt O14920) (assay: IKK-β kinase inhibitory assay). Details: compounds as yielded by solid phase synthesis, purity about 40 to 90%, read-out: In vitro activity grade (In vitro IC50).
T1 construct: A cDNA fragment encoding human IKK-β open reading frame was generated by PCR; His tag (from pcDNA3.1/His C); made in house; host or cells: Sf21 insect cells (baculovirus); substrate made in E. coli
T1 sequence (O14920 1-756): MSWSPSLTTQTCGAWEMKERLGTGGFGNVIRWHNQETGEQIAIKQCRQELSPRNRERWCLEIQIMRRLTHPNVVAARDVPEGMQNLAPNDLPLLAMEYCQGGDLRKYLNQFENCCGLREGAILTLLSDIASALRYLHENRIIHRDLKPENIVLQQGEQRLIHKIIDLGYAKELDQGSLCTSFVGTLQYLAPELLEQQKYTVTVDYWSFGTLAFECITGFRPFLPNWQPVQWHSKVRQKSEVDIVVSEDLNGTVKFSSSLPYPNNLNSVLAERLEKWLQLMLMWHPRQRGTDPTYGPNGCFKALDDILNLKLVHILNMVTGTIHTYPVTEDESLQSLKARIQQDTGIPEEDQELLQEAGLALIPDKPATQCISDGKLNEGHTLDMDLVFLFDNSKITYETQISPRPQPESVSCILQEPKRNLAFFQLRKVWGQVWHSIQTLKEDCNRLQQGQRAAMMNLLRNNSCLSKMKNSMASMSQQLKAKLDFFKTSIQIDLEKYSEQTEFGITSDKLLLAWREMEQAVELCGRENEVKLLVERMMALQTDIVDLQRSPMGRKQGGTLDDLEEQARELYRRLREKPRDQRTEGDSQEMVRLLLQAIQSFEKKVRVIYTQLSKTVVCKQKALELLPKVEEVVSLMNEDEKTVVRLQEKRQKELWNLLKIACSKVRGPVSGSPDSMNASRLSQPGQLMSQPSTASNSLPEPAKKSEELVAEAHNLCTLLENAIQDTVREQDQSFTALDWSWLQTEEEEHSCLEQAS
Assay type: biochemical
Method in brief: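 His-tagged human IKK-β from baculovirus-infected Sf21 cells (0.6 μg/ml final) phosphorylates biotinylated GST-IκBα(1-54) (0.2 μM) in Tris-HCl pH 7.6 buffer with MgCl2. ATP with [γ-33P]ATP added, then 2 h at room temperature. Biotinylated substrate captured on streptavidin plates; bound radioactivity counted by scintillation.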

| IC50 [nM] | Compound |
| --- | --- |
| 500 to 2000 | Cc1cccc(-c2cc(C3CCCNC3)c(C#N)c(N)n2)c1O (stereo not shown) [Example 1-17] |
| < 500 | NC(=O)C1Cc2c(C3CCNCC3)cc(-c3c(O)cccc3OCC3CC3)nc2NC1=O (stereo not shown) [Example 26-2, 7-[2-(cyclopropylmethoxy)-6-hydroxyphenyl]-2-oxo-5-(4-piperidinyl)-1,2,3,4-tetrahydro-1,8-naphthyridine-3-carboxamide hydrochloride] |
| < 500 | CCCOc1cccc(O)c1-c1cc(C2CCNCC2)c(C#N)c(N)n1 [Example 2-67] |
| < 500 | N#Cc1c(C2CCCNC2)cc(-c2c(O)cccc2OCC2CCC2)nc1N (stereo not shown) [Example 2-62] |
| < 500 | CC(C)COc1cccc(O)c1-c1cc(C2CCNCC2)c(C#N)c(N)n1 [Example 2-71] |
| < 500 | N#Cc1c(C2CCCNC2)cc(-c2c(O)cccc2OCC2CCCCO2)nc1N (stereo not shown) [Example 2-79] |
| < 500 | N#Cc1c(C2CCCNC2)cc(-c2c(O)cccc2OCc2ccc([N+](=O)[O-])cc2)nc1N (stereo not shown) [Example 2-14] |
| 2000 to 10000 | CS(=O)(=O)N1CCCC(c2cc(-c3ccccc3O)nc(N)c2C#N)C1 (stereo not shown) [Example 1-42] |
| < 500 | N#Cc1c(CC(N)c2ccccc2)cc(-c2ccccc2O)nc1N (stereo not shown) [Example 1-35] |
| 2000 to 10000 | CCc1cc(-c2ccccc2O)nc(N)c1C#N [Example 1-39] |
| < 500 | N#Cc1c(C2CCCNC2)cc(-c2c(O)cccc2OCC2CCCO2)nc1N (stereo not shown) [Example 2-80] |
| < 500 | CCOC(=O)C1Cc2c(C3CCCNC3)cc(-c3ccccc3O)nc2NC1=O (stereo not shown) [Example 26-1, ethyl 7-(2-hydroxyphenyl)-2-oxo-5-(3-piperidinyl)-1,2,3,4-tetrahydro-1,8-naphthyridine-3-carboxylate] |
| 2000 to 10000 | N#Cc1c(C2CCCNC2)cc(-c2c(O)cccc2OCCN2CCCC2)nc1N (stereo not shown) [Example 2-87] |
| < 500 | N#Cc1c(C2CCCNC2)cc(-c2c(O)cccc2OCc2ccccc2Cl)nc1N (stereo not shown) [Example 2-17] |
| < 500 | CCCCCCOc1cccc(O)c1-c1cc(C2CCNCC2)c(C#N)c(N)n1 [Example 2-76] |
| < 500 | N#Cc1c(C2CCCNC2)cc(-c2c(O)cccc2OCc2cccc([N+](=O)[O-])c2)nc1N (stereo not shown) [Example 2-13] |
| < 500 | NC(=O)c1cc2c(C3CCNCC3)cc(-c3c(O)cccc3OCC3CC3)nc2[nH]c1=O [Example 25-3, 7-[2-(cyclopropylmethoxy)-6-hydroxyphenyl]-2-oxo-5-(4-piperidinyl)-1,2-dihydro-1,8-naphthyridine-3-carboxamide hydrochloride] |
| 500 to 2000 | CN(C)CCOc1cccc(O)c1-c1cc(C2CCCNC2)c(C#N)c(N)n1 (stereo not shown) [Example 2-85] |
| < 500 | Cc1ccc(COc2cccc(O)c2-c2cc(C3CCCNC3)c(C#N)c(N)n2)cc1 (stereo not shown) [Example 2-08] |
| < 500 | O=c1[nH]c2nc(-c3c(O)cccc3OCC3CC3)cc(C3CCCNC3)c2cc1F (stereo not shown) [Example 25-2, 7-[2-(cyclopropylmethoxy)-6-hydroxyphenyl]-3-fluoro-5-(3-piperidinyl)-1,8-naphthyridin-2(1H)-one hydrochloride] |
| < 500 | O=c1ccc2c(C3CCCNC3)cc(-c3c(O)cccc3OCC3CC3)nc2[nH]1 (stereo not shown) [Example 25-4, 7-[2-(cyclopropylmethoxy)-6-hydroxyphenyl]-5-(3-piperidinyl)-1,8-naphthyridin-2(1H)-one hydrochloride] |
| 500 to 2000 | N#Cc1c(C2CCCNC2)cc(-c2c(O)cccc2OCCN2CCCCC2)nc1N (stereo not shown) [Example 2-83] |
| < 500 | N#Cc1c([C@H](N)Cc2ccccc2)cc(-c2ccccc2O)nc1N [Example 1-34] |
| < 500 | CC(C)(C)C(=O)COc1cccc(O)c1-c1cc(C2CCCNC2)c(C#N)c(N)n1 (stereo not shown) [Example 2-77] |
| < 500 | N#Cc1c(C2CCCNC2)cc(-c2c(O)cccc2OCC2CC2)nc1N (stereo not shown) [Example 2-65] |
| < 500 | N#Cc1c(C2CCNCC2)cc(-c2ccccc2O)nc1N [Example 1-13] |

| IC50 [nM] | Compound |
| --- | --- |
| < 500 | CS(=O)(=O)N1Cc2c(C3CCCNC3)cc(-c3c(O)cccc3OCC3CC3)nc2NC1=O (stereo not shown) [Example 24-4, 7-[2-(cyclopropylmethoxy)-6-hydroxyphenyl]-3-(methylsulfonyl)-5-(3-piperidinyl)-3,4-dihydropyrido[2,3-d]pyrimidin-2(1H)-one hydrochloride] |
| 2000 to 10000 | Cc1cccc(O)c1-c1cc(C2CCCNC2)c(C#N)c(N)n1 (stereo not shown) [Example 1-21] |
| < 500 | Cc1cccc(COc2cccc(O)c2-c2cc(C3CCCNC3)c(C#N)c(N)n2)c1 (stereo not shown) [Example 2-07] |
| < 500 | N#Cc1c(C2CCCNC2)cc(-c2c(O)cccc2OCc2cccc(Br)c2)nc1N (stereo not shown) [Example 2-11] |
| < 500 | N#Cc1c([C@@H](N)Cc2ccccc2)cc(-c2ccccc2O)nc1N [Example 1-25] |
| 500 to 2000 | N#Cc1c(C2CCCCN2)cc(-c2ccccc2O)nc1N (stereo not shown) [Example 1-14] |
| < 500 | C[C@H](N)c1cc(-c2ccccc2O)nc(N)c1C#N [Example 1-32] |
| < 500 | N#Cc1c(C2CCCNC2)cc(-c2c(O)cccc2OCc2ccc(Cl)cc2)nc1N (stereo not shown) [Example 2-19] |
| < 500 | N#Cc1c(CCN)cc(-c2ccccc2O)nc1N [Example 1-37] |
| < 500 | N#Cc1c(C2CCCNC2)cc(-c2c(O)cccc2OCc2c(Cl)cccc2Cl)nc1N (stereo not shown) [Example 2-20] |
| < 500 | CC(C)(C)C(=O)COc1cccc(O)c1-c1cc(C2CCNCC2)c(C#N)c(N)n1 [Example 2-78] |
| < 500 | N#Cc1c(C2CCCNC2)cc(-c2c(O)cccc2OCC2CCCO2)nc1N (stereo not shown) [Example 2-81] |
| < 500 | N#Cc1c(C2CCC(N)CC2)cc(-c2ccccc2O)nc1N (stereo not shown) [Example 1-22] |
| < 500 | N#Cc1c(C2CCCNC2)cc(-c2c(O)cccc2OCCC2CCCCC2)nc1N (stereo not shown) [Example 2-61] |
| < 500 | CCCCCOc1cccc(O)c1-c1cc(C2CCNCC2)c(C#N)c(N)n1 [Example 2-69] |
| < 500 | CCCN(CCC)C1CCCC(c2cc(-c3ccccc3O)nc(N)c2C#N)C1 (stereo not shown) [Example 1-43] |
| < 500 | N#Cc1c(C2CCC(C(=O)O)CC2)cc(-c2ccccc2O)nc1N (stereo not shown) [Example 1-38] |
| 500 to 2000 | N#Cc1c(C2CNCCN2)cc(-c2ccccc2O)nc1N (stereo not shown) [Example 1-15] |
| < 500 | N#Cc1c(C2CCCNC2)cc(-c2c(O)cccc2OCc2ccccc2[N+](=O)[O-])nc1N (stereo not shown) [Example 2-12] |
| < 500 | N#Cc1c(C2CCNCC2)cc(-c2c(O)cccc2OCCC2CCCCC2)nc1N [Example 2-70] |
| < 500 | CCCC[C@H](N)c1cc(-c2ccccc2O)nc(N)c1C#N [Example 1-28] |
| < 500 | CC(C)CCCOc1cccc(O)c1-c1cc(C2CCNCC2)c(C#N)c(N)n1 [Example 2-66] |
| 500 to 2000 | N#Cc1c(C2CCCN(C(=O)CCN3CCCCC3)C2)cc(-c2ccccc2O)nc1N (stereo not shown) [Example 1-41] |
| < 500 | N#Cc1c(C2CCCNC2)cc(-c2c(O)cccc2OCc2cccc(Cl)c2)nc1N (stereo not shown) [Example 2-18] |
| < 500 | O=C1CCc2c(C3CCCNC3)cc(-c3ccccc3O)nc2N1 (stereo not shown) [Example 27-1, 7-(2-hydroxyphenyl)-5-(3-piperidinyl)-3,4-dihydro-1,8-naphthyridin-2(1H)-one hydrochloride] |
| 500 to 2000 | N#Cc1c([C@@H](N)CCc2ccccc2)cc(-c2ccccc2O)nc1N [Example 1-29] |
